Tests used:
[1] = biological target: GFP-IRTK R2; experiment: In vitro kinase assay of IRTK/IGF-1R kinase hybrids; assay type: biochemical, human; details: R2 region of IRTK replaced with IGF-1R
Experimental: Parental CHO cells were used as a negative control (Bottom panel). The fluorescence-labeled cells were analyzed on flow cytometry. (B) 4524-E7 protects IRTK from proteolysis. GST-IRTK was subjected to limited trypsin or chymotrypsin digestion in the presence of 4524-E7 (50 μM), ATPyS (5 μM) or both at 37° C. for 5 min. The reaction mixture was resolved by SDS-PAGE, followed by silver staining Cleaved fragments were asterisked. (C) 4524-E7 increases IRTK activity in vitro. Recombinant GST-IRTK, GST-IGFRTK, and GST-EGFRTK were incubated with different concentrations of 4524-E7 or 10 μM 2—NH2-NQ and the kinase activity was examined by monitoring the phosphorylation of histone H2B. (E) In vitro kinase activity of various IRTK/IGF-1R kinase hybrids. The GFP-tagged kinases were expressed in HEK293, immunoprecipitated and incubated with different concentrations of 4524-E7 as indicated. […] Expressions of the kinases were also verified (lower panel).
To test if these regions are the action sites of 4524-E7, several GFP-tagged hybrid kinases were generated with R1 (GFP-IRTK R1), R2 (GFP-IRTK R2) or both (GFP-IRTK R1+R2) regions of IRTK and replaced with the corresponding sequence of IGF-1R. These mutants were then used to perform the in vitro kinase assay in the presence of 4524-E7. […]

[2] = biological target: T1, IR (Homo sapiens, UniProt P06213); experiment: IR phosphorylation in transfected HEK293 cells (Western blot); assay type: cell-based; design: expressed in transfected cells; host or cells: HEK293; details: 4524-E7 5 μM, insulin 100 nM
Target sequence in this assay (P06213 28-1382): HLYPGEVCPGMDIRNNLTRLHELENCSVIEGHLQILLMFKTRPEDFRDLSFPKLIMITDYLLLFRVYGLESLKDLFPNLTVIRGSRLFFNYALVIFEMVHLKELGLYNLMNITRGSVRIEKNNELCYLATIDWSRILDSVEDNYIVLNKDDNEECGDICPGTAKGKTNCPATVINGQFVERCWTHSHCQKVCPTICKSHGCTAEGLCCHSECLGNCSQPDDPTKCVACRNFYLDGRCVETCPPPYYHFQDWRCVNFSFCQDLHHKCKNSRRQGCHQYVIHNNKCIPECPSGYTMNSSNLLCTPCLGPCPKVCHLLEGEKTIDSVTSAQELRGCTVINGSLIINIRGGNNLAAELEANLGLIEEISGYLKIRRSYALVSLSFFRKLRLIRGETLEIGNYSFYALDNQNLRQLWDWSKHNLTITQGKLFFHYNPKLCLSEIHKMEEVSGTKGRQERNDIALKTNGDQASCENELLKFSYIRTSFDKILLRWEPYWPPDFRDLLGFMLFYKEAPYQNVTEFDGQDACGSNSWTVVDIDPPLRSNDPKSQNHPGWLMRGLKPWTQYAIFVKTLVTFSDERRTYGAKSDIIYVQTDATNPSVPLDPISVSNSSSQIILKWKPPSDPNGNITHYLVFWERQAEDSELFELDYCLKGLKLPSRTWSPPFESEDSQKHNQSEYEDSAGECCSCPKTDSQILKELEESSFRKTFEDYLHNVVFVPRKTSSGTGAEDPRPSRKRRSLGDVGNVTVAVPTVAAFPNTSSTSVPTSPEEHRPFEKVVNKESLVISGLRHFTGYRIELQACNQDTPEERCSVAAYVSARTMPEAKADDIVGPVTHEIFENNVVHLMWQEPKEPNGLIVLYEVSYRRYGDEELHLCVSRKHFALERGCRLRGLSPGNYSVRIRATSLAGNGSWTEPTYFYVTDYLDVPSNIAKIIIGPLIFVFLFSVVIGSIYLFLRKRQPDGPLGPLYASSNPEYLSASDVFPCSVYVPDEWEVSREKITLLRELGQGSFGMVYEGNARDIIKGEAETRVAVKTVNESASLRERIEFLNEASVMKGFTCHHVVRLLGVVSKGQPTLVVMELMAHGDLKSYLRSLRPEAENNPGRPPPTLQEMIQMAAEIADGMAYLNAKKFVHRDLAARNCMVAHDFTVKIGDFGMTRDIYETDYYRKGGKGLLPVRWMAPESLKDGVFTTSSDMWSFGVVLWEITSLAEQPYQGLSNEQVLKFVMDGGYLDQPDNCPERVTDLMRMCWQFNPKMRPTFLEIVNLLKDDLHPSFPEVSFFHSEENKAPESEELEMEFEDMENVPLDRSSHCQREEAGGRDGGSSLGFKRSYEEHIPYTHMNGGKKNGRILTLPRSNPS
Experimental: Cells were lysed, and IR phosphorylations were tested by ELISA. The IR phosphorylation activities of the tested compounds were expressed as a percentage of the vehicle. […] The cell lysates were analyzed by immunoblotting with various indicated antibodies. The phosphorylated IR was immunoprecipitated using PY20 and analyzed by immunoblotting with anti-IR13 antibody. […] The phosphorylation of each receptor was determined by Western blot using specific antibodies as indicated. […] Then the cells were lysated and the transfected receptor fused to His tag were pulled down with Ni+ beads, followed by western blot against anti-p-Tyr and anti-His. The cell lysates were tested with anti-p-Akt and anti-Akt.
Whether 4524-E7 can activate other receptors of RTK family was tested. […] To further explore the specificity, several hybrid recombinant RTKs were generated by replacing IGFR and EGFR's extracellular domain (ECD) with IR's ECD. Moreover, IGFR's intracellular domain (ICD) was substituted with IR's ICD, and the His-tagged receptors were transfected into CHO cells and treated with 4524-E7 for 30 min.

[3] = biological target: T1, IR; experiment: Cell-based ELISA of IR tyrosine phosphorylation in CHO-IR cells; design: expressed in transfected cells; host or cells: CHO (CHO-IR, gift from Dr. Nicholas Webster, UCSD)
Experimental: A cell-based screening assay was developed with Chinese hamster ovary cells stably transfected with IR (CHO-IR) by using an ELISA to determine the IR tyrosine phosphorylation. […] Other 1,4-Napthoquinones that are structurally related to 4524-E7 were evaluated.
CHO-IR cells were seeded in a 96-well plate at 15,000 cells per well in […] of 0.1% FBS medium with 0.1% FBS. […] Cells were lysed, and phosphorylated receptors were captured with pY20 immobilized on ELISA plates. Bound receptors were washed, then detected using an anti-IR beta antibody, followed by an horseradish peroxidase-conjugated secondary antibody and colorimetric detection with 3,3′,5,5′-tetramethylbenzidine.
A cell-based ELISA assay was developed with an IR stably transfected Chinese Hamster Ovary (CHO-IR) cell line. […] The cell lysates were subjected to the sandwich ELISA using immobilized anti-phosphotyrosine antibody and anti-IR antibody.
Target sequence in this assay (P06213 763-1382 limits assumed): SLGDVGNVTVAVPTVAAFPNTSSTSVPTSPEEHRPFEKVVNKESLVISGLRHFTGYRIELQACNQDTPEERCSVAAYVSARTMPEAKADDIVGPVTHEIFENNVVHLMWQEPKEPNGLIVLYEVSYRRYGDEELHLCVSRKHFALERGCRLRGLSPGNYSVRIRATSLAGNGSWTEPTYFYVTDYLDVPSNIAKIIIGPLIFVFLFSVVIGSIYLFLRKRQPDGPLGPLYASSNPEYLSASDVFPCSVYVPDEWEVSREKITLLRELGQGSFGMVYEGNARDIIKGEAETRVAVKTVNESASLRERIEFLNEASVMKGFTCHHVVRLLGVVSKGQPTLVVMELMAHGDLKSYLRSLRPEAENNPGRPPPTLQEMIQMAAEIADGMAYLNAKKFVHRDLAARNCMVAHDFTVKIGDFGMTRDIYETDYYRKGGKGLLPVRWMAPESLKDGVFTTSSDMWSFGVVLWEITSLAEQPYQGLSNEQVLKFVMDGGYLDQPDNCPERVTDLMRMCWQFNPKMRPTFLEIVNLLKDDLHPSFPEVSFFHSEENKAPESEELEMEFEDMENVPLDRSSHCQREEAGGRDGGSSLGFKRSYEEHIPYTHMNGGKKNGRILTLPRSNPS
Target sequence in this assay (P06213 28-758 limits assumed): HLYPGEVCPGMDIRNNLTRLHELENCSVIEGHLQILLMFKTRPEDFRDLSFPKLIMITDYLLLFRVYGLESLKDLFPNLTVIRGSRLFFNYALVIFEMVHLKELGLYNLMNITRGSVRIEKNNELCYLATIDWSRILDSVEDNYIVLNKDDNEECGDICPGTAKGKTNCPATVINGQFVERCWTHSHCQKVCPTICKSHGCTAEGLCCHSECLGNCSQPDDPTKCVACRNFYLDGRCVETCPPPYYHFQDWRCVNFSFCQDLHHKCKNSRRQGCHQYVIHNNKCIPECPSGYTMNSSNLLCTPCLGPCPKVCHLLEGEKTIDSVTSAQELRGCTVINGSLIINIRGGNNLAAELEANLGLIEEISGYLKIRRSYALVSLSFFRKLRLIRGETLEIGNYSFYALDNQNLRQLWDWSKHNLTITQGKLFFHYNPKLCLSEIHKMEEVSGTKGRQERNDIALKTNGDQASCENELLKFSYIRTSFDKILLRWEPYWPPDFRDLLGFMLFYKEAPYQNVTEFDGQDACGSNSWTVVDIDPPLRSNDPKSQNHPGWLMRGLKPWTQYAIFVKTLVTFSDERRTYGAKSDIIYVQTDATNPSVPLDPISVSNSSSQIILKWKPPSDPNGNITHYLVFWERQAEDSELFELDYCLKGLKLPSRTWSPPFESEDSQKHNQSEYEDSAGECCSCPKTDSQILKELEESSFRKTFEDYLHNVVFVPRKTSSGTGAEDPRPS

[4] = biological target: FGFR1 (Homo sapiens, UniProt P11362); experiment: RTK kinase profile screen assay; assay type: biochemical; details: 10 μM
FGFR1, sequence (P11362 22-822, species assumed): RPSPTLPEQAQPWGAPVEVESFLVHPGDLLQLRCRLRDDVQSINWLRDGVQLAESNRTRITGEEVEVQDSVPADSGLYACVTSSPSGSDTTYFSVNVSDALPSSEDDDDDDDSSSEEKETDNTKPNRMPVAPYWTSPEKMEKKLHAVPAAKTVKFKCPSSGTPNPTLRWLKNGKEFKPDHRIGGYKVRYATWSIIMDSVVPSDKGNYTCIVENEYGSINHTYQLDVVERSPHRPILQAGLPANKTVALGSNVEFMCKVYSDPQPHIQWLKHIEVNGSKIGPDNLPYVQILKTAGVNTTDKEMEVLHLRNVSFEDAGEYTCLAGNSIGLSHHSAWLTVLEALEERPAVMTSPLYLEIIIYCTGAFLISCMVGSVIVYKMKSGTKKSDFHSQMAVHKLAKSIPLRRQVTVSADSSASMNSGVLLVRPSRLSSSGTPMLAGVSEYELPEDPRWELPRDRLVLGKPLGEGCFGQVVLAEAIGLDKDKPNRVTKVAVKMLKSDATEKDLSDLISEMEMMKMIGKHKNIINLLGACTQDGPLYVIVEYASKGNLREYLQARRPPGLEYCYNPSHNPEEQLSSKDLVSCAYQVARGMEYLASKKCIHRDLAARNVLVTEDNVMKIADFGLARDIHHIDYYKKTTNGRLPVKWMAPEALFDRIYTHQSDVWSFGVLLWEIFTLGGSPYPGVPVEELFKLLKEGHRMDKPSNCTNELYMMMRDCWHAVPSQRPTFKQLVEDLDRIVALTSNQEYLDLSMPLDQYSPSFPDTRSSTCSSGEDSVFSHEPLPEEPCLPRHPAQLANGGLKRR

[5] = test system: EGFR, ErbB2, EphAl, FGFR1, VEGFR1, cMet, TrkB, PDGFRa, RET; experiment: RTK kinase profile screen assay; assay type: biochemical
[6] = test system: C57B5L/6J mice; experiment: Hyperinsulinemic-euglycemic clamp; assay type: in vivo, mouse; details: 5 mg/kg oral 1 h before clamp
Experimental: (A) 4524-E7 provokes IR phosphorylation in various tissues of mice. Three-month-old C57BL/6J mice were starved for 12 h and then dosed with vehicle (0.5% methylcellulose) or 4524-E7 (20 mg/kg). Cell lysates from liver, muscle, and WAT were prepared at 3, 4, and 5 h after drug administration and analyzed by immunoblotting. (B) Basal and insulin-stimulated hepatic glucose production rates were measured by hyperinsulinemic-euglycemic clamp. […] (C) Hypoglycemic effect of 4524-E7 in C57BL/6J mice. C57BL/6J mice were starved for 12 h and then orally administrated with vehicle (0.5% methylcellulose) or 4524-E7 (5 mg/kg). Blood glucose was monitored at different time points as indicated (n=8, *: P<0.05, two-way ANOVA). (D) Hypoglycemic effect in db/db mice. db/db mice were starved for 12 h and then orally injected with vehicle (0.5% methylcellulose) or 4524-E7 (5 mg/kg). Blood glucose was monitored at different time points as indicated (n=5, *: P<0.05, two-way ANOVA). (E) Glucose tolerance test in ob/ob mice. The mice were starved for 12 hours and then orally administrated with vehicle or 4524-E7 (5 mg/kg). A bonus of glucose (2 gm/kg) was injected intraperitoneally 1 hour later. Blood glucose was then measured at 30 min intervals (n=13, *: P<0.05; **: P<0.01, two-way ANOVA).
C57B5L/6J mice were fasted for 12 h. […] In vivo hepatic glucose output was then determined by hyperinsulinemic-euglycemic clamp.

[7] = biological target: T2, IGF-IR (Mus musculus, UniProt Q60751); experiment: IGF-IR activation in mouse muscle and liver; assay type: in vivo; details: C57BL/6J mice, 20 mg/kg oral
T2 construct: from tissue; host or cells: muscle and liver of C57BL/6J mice
T2 sequence (Q60751 31-1373): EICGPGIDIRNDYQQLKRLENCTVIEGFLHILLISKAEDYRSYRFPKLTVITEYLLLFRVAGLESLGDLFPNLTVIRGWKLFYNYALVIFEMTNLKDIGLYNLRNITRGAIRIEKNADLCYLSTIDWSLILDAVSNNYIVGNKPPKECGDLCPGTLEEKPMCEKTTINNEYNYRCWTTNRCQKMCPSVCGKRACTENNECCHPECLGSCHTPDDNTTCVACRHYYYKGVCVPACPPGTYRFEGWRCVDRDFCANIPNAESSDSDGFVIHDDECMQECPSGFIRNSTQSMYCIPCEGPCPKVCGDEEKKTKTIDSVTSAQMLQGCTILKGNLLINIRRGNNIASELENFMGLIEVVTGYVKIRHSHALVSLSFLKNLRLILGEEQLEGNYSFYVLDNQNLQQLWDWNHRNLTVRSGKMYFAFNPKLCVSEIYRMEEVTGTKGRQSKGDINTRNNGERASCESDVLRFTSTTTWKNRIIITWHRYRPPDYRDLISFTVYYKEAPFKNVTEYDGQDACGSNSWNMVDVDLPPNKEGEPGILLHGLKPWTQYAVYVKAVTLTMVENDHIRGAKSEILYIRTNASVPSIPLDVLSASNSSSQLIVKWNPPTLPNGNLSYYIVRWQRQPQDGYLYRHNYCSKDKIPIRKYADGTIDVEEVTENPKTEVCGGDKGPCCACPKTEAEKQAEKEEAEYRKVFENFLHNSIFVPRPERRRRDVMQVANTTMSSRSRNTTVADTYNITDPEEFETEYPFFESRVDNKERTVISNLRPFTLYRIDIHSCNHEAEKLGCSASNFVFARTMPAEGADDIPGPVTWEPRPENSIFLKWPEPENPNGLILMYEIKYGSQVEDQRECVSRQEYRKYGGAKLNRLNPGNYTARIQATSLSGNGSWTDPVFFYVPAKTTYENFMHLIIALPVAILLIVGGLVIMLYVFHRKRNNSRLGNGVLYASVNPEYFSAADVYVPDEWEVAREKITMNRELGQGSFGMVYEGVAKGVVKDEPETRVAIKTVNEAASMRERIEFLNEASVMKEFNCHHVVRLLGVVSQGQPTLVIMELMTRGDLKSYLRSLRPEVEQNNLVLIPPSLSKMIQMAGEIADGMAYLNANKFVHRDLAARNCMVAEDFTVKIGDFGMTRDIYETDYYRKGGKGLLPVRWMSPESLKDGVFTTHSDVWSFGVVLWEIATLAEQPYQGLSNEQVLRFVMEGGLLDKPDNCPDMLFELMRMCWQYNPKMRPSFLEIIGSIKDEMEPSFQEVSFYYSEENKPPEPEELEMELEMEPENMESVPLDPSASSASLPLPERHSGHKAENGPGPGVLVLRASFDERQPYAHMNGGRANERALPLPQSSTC

Which results are given for O=C1c2ccccc2C(=O)C2SC(Nc3ccc(Cl)cc3)=NC12 (centres unmarked) [4524-E7, 2-((4-chlorophenyl)amino)naphtho[2,3-d]thiazole-4,9(3aH,9aH)-dione]?
kinase stimulatory effect on hybrid kinase [1]: abolishes the kinase stimulatory effect; IR activation [2]: selectively activated; IR phosphorylation ([3]; 5 μM, 15 min, CHO-IR cells, ELISA): about 250 % of basal level; concentration at which IR activation peaked ([3]; 15 min, dose-response): 10 µM; concentration at which IR activation started ([3]; 15 min, dose-response): 2.5 µM; time at which IR activation is triggered ([3]; 4524-E7 5 μM or insulin 50 nM): 5 min; time at which IR activation peaked ([3]; 4524-E7 5 μM or insulin 50 nM): 30 min; inhibition of FGFR1 [4]: slightly inhibited; activation of tested RTKs [5]: none of the tested RTKs; insulin-stimulated suppression of hepatic glucose output [6]: potentiated the insulin actions in suppressing hepatic glucose output

CC(=O)Oc1ccc(OC(C)=O)c2c1C(=O)C(Cl)=C(Cl)C2=O [DDN, 5,8-diacetyloxy-2,3-dichloro-1,4-naphthoquinone] was tested. Which “IGF-IR activation in muscle or liver” value [7] did it give?
The value was “did not stimulate IGF-IR activation”.

— patent publication US9040713B2, “Methods of managing blood sugar levels and compositions related thereto” (EMORY UNIVERSITY, priority 2010, dated 2015)
